{"source": "paper PMC5566973", "about": "(Frontiers in Pharmacology, 2017)", "key": {"[1]": {"set-up": "method as in Wu et al., 2009", "details": "wild-type and CYP2D6-humanized mice, intraperitoneal injection, 5 or 15 mg/kg; ref Wu et al., 2009; cited from earlier work"}, "[2]": {"target": "T1, human MRP2 (Homo sapiens, UniProt Q92887)", "T1 construct": "purchased GenoMembrane (Kanagawa, Japan); host or cells: Sf9", "T1 sequence (Q92887 whole entry)": "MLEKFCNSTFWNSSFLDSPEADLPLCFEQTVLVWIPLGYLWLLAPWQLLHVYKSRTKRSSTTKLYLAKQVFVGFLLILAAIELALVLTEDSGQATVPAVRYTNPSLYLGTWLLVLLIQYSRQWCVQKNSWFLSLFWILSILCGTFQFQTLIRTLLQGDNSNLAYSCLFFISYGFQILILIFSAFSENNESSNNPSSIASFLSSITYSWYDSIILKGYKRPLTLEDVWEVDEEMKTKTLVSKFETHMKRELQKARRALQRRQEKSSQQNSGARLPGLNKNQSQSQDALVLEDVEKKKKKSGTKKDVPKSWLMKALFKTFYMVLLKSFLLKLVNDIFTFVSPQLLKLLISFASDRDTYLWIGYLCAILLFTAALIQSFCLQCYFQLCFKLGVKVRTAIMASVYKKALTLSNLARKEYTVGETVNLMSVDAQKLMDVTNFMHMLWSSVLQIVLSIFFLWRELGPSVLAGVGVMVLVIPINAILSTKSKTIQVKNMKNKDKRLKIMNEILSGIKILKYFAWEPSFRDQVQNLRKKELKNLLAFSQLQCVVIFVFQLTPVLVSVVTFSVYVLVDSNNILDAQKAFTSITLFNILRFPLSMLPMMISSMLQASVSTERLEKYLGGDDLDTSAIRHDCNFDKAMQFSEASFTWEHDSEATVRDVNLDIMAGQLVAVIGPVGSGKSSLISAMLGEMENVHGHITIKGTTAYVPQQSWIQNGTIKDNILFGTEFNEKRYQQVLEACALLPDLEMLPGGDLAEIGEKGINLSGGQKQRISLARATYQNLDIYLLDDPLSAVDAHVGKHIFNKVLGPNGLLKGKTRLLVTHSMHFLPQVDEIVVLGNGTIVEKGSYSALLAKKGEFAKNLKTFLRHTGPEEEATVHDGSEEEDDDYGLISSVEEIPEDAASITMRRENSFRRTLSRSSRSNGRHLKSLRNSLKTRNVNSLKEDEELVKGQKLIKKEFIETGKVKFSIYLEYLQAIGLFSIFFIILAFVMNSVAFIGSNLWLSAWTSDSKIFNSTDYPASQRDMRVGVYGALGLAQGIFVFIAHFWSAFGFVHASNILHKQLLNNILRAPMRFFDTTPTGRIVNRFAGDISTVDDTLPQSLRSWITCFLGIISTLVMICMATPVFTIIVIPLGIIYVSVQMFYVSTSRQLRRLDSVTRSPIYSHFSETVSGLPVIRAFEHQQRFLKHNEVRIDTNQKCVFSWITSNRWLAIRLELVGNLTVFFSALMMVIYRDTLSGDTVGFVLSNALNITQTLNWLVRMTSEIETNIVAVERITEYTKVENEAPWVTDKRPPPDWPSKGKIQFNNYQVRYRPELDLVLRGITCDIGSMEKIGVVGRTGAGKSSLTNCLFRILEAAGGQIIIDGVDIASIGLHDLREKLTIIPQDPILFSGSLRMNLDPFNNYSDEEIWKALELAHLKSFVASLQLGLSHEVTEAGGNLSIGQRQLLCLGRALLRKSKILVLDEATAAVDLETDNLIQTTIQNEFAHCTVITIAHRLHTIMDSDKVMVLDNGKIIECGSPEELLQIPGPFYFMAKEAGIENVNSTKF", "assay": "Vesicular transport assay, Sf9 membrane vesicles expressing human MRP2", "format": "in vitro ADME", "details": "1 μM, MgATP vs MgAMP", "description": "(§1) The vesicular transport assay was implemented as described in the GenoMembrane™ vesicular transport kit protocol (GenoMembrane, Kanagawa, Japan) with minor changes. Briefly, vesicle stocks were thawed and diluted with assay buffer (50 mM MOPS-Tris, 70 mM KCl, and 7.5 mM MgCl2). […] MgAMP instead of MgATP was used as a control. Apart from these, 4 mM glutathione was also included in BCRP and MRP2 assays. Transport was terminated with ice cold assay buffer, and then samples were quickly transferred to a filter plate. Wells were immediately washed 5 times with 200 μL assay buffer and dried. The vesicles on the plate were dissolved in 50 μL of 80% methanol and centrifuged at 2,000 rpm for 2 min after collection, and repeating the above procedures. Mixed the two filtrates together and added the pre-cooled methanol. After centrifugation at 12,000 rpm for 5 min at 4°C, a 5 μL aliquot of supernatant was injected into the UPLC-ESI-MS/MS system for analysis. Furthermore, the uptake of NMQ (MDR1), LY (BCRP), and E217βG (MRP2) was used to evaluate the activity of specific vesicles."}, "[3]": {"target": "T2, human MDR1 (Homo sapiens, UniProt P08183)", "T2 construct": "purchased GenoMembrane (Kanagawa, Japan); host or cells: Sf9", "T2 sequence (P08183 whole entry)": "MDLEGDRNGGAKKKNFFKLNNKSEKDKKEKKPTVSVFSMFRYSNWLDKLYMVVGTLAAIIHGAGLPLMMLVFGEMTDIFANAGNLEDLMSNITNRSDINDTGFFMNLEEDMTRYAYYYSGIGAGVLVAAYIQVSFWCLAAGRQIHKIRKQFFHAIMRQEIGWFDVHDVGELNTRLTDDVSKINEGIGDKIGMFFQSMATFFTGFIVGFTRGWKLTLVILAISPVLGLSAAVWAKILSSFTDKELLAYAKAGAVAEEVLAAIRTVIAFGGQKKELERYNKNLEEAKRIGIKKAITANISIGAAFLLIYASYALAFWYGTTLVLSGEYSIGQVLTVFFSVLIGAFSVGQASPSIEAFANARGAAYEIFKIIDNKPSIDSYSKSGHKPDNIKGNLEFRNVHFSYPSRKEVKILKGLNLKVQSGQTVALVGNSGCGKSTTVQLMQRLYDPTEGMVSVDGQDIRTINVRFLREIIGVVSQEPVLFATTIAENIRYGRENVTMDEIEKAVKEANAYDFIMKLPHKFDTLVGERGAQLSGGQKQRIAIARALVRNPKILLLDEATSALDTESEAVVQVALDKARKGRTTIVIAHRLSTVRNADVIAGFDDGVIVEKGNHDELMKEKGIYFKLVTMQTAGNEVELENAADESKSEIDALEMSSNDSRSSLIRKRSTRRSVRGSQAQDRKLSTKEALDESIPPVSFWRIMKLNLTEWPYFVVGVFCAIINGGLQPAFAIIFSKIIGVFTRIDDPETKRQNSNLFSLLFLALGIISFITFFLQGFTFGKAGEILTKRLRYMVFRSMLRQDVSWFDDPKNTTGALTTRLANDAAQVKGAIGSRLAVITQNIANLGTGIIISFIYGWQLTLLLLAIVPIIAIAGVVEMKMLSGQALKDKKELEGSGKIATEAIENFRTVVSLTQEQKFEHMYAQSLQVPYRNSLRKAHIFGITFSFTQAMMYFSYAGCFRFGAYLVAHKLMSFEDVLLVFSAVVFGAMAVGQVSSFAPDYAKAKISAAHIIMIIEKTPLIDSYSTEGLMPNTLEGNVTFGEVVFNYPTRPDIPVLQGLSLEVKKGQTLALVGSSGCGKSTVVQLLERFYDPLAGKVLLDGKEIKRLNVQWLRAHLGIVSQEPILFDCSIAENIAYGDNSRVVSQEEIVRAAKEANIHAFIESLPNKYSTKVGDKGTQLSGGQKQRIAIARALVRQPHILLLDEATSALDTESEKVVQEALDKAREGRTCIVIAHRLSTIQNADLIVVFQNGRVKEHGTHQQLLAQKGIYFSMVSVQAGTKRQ", "assay": "Vesicular transport assay, Sf9 membrane vesicles expressing human MDR1", "format": "in vitro ADME", "details": "1 μM, MgATP vs MgAMP", "description": "as §1"}, "[4]": {"system": "Caco-2 cell monolayers", "details": "Caco-2 monolayers, 250–500 μM; ref Khan et al., 2004; cited from earlier work"}, "[5]": {"target": "T3, human BCRP (Homo sapiens, UniProt Q9UNQ0)", "T3 construct": "purchased GenoMembrane (Kanagawa, Japan); host or cells: Sf9", "T3 sequence (Q9UNQ0 1-655)": "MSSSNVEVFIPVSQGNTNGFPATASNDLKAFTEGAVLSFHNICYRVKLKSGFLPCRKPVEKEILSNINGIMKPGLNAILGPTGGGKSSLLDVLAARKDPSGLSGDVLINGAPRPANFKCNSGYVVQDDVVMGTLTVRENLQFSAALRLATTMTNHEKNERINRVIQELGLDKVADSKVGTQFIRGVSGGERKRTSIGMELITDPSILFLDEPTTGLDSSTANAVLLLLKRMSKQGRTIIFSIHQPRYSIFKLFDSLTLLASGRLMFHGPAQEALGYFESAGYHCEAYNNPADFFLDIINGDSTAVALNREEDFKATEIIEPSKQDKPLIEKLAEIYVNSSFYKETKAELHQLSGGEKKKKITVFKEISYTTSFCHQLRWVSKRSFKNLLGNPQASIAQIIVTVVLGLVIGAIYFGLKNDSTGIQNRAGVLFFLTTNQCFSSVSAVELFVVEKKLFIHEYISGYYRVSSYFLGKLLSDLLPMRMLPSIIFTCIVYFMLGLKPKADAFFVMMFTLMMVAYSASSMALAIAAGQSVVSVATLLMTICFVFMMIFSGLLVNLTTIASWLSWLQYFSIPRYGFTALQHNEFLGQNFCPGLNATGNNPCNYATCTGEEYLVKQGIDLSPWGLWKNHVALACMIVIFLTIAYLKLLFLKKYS", "assay": "Vesicular transport assay, Sf9 membrane vesicles expressing human BCRP", "format": "in vitro ADME", "details": "1 μM, MgATP vs MgAMP", "description": "as §1"}, "[6]": {"system": "PEPT1", "assay": "Bidirectional transport in MDCK cell monolayers with selective transporter inhibitors or substrates", "format": "in vitro ADME, canine", "details": "dog, with Gly-Sar 10 mM, + Gly-Sar 10 mM (PEPT1)", "description": "(§2) Caco-2, MDCK and MDCK-MRP2 cells were donated by Prof. Yan Xie and Yueming Ma from Shanghai University of Traditional Chinese Medicine. The cells were grown in culture dishes (Corning® Costar, Cambridge, MA, USA) using DMEM supplemented with 10% FBS, 1% NEAA and 1% penicillin-streptomycin solution. The cells were cultured in 5% CO2 and […] with 90% relative humidity at 37°C. The medium was replaced every other day during incubation. The cells were passaged every 3–4 days between 70 and 80% confluence at a 1:5 split ratio using 0.25% trypsin-EDTA. For the transport experiments, the cells from passages between 30 and 45 were seeded at 1 × 10^5 cells/cm^2 onto permeable polycarbonate inserts (0.45 μm pore size, seeding surface of 0.6 cm^2, Millipore, MA, USA) in 24-well plastic plates. The media in the culture plates were changed every other day for the first week after seeding and were replaced daily afterward. […] The cells were used for the transport experiments 21–28 (Caco-2) or 5–7 (MDCK and MDCK-MRP2) days after seeding, and only monolayers with a TEER-value above 420 Ω cm^2 were used during the studies.\n(§3) The apical (AP) and basolateral (BL) sides are typical of polarized Caco-2, MDCK and MDCK-MRP2 epithelial cells. Before the experiments, the polarized cell monolayers were washed twice with warm HBSS solution and subsequently preincubated (37°C, 30 min). Afterward, HBSS solution on both sides of the cell monolayers was removed using a mini desktop vacuum pump. […] The final DMSO concentration in the HBSS or drug mixture was below 0.5%. The monolayers were incubated at 37°C, and 100 μL samples were taken at 30, 60, 90, and 120 min from the acceptor compartment and immediately replaced with the same volume of prewarmed fresh blank HBSS. TEER measurements for assessing the membrane integrity took place before and after the experiments.\n(§4) The apparent permeability coefficients (Papp) and ER were calculated as Equations (2) and (3): […]\n(§5) where dQ/dt is the steady-state flux, A is the membrane surface area, and C0 is the initial drug concentration in the donor compartment. PappBA is the Papp-value measured in BL to AP direction and PappAB is the Papp-value measured in AP to BL direction. It indicated the involvement of an active transport process when the ER-value is above 1.5 (Hubatsch et al., [2007])."}, "[7]": {"system": "MCTs", "assay": "Bidirectional transport in MDCK cell monolayers with selective transporter inhibitors or substrates", "format": "in vitro ADME, canine", "details": "dog, with phloretin 0.3 mM, + Phloretin 0.3 mM (MCTs)", "description": "as §2, §3, §4, §5"}, "[8]": {"assay": "Bidirectional transport in MDCK cell monolayers with selective transporter inhibitors or substrates", "format": "in vitro ADME, canine", "details": "dog, Control (no inhibitor or substrate), read-out: ER", "description": "as §2, §3, §4, §5"}, "[9]": {"system": "OATPs", "assay": "Bidirectional transport in MDCK cell monolayers with selective transporter inhibitors or substrates", "format": "in vitro ADME, canine", "details": "dog, with ES 0.05 mM (50 μM), + ES 0.05 mM (OATPs)", "description": "as §2, §3, §4, §5"}, "[10]": {"system": "OCTs/OCTNs", "assay": "in vitro", "details": "human, Caco-2, ER, Caco-2, 2 μM, + TEA 5 mM (OCTs/OCTNs)"}, "[11]": {"system": "SGLT1", "assay": "in vitro", "details": "human, Caco-2, ER, Caco-2, 2 μM, + Phloridzin 0.5 mM (SGLT1)"}}, "note": "Where “and” joins values, the source holds several entries; their conditions need not be identical. Identical values can stand only once.", "data": [{"smiles": "COc1ccc2c3c([nH]c2c1)C(C)=NCC3", "note": "[Harmaline]", "values": [{"measurement": "F-values", "setting": "[1]", "value": "73.7% and 98.2% and 68.6% and 60.0%"}, {"measurement": "uptake ratio (UR)", "setting": "[2]", "value": "< 2.00 and 1.35"}, {"measurement": "uptake ratio (UR)", "setting": "[3]", "value": "< 2.00 and 1.97"}, {"measurement": "efflux ratios (ER)", "setting": "[4]", "value": "< 1.0"}, {"measurement": "uptake ratio (UR)", "setting": "[5]", "value": "< 2.00 and 1.42"}, {"measurement": "Papp A→B at 120 min, 2 μM", "setting": "[6]", "value": "209 ± 29", "unit": "nm/s"}, {"measurement": "Papp B→A at 120 min, 2 μM", "setting": "[6]", "value": "214 ± 19.6", "unit": "nm/s"}, {"measurement": "efflux ratio at 120 min, 2 μM", "setting": "[6]; read-out: ER", "value": 1.03}, {"measurement": "Papp B→A at 120 min, 2 μM", "setting": "[7]", "value": "233 ± 14", "unit": "nm/s"}, {"measurement": "efflux ratio at 120 min, 2 μM", "setting": "[7]; read-out: ER", "value": 1.15}, {"measurement": "efflux ratio at 120 min, 2 μM", "setting": "[8]", "value": 1.03}, {"measurement": "Papp A→B at 120 min, 2 μM", "setting": "[9]", "value": "194 ± 32.3", "unit": "nm/s"}, {"measurement": "efflux ratio at 120 min, 2 μM", "setting": "[9]; read-out: ER", "value": 1.07}, {"measurement": "efflux ratio", "setting": "[10]", "value": 1.13}, {"measurement": "efflux ratio", "setting": "[11]", "value": 0.95}]}]}
